Source: article PMC7119052 (Bioorganic & Medicinal Chemistry, 2005)

What was measured:
CypA [1] = biological target: T1, CypA (Homo sapiens, UniProt P62937); experiment: biochemical
[2] = system: mouse spleen cells induced by Con A; experiment: Proliferation of mouse spleen cells induced by Con A; assay type: cell-based; conditions: 72 h, read-out: Inhibitory rate (%)
CypA [3] = biological target: T1, CypA; experiment: SPR-based binding affinity assay; conditions: pH 7.4

T1 sequence (P62937 whole entry): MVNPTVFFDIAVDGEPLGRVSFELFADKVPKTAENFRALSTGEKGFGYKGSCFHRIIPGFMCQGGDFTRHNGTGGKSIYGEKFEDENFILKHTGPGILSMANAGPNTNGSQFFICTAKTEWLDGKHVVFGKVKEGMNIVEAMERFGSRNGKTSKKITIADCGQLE

Row | Structure (SMILES) | Kd (CypA [3]) [µM] | % inhibition at 10 μM (CypA [1]) [%] | also measured
1 | COC(=O)c1cc(Cc2ccc(NCc3ccccc3)c(C(=O)OC)c2)ccc1NCc1ccccc1 [Compound 18g, 6,6′-Bis-benzylamino-3,3′-methanediyl-di-benzoic acid dimethyl ester] | – | – | IC50 (CypA [1]): 6.23 µM; inhibition at 1 µM [2]: 1.2 ± 6.41%; inhibition at 10 µM [2]: 7.46 ± 4.13%; inhibition at 100 µM [2]: 28.8 ± 3.39%
2 | Cc1noc(NS(=O)(=O)c2ccc(NC(=O)c3cc(-c4ccc(Br)cc4)nc4ccccc34)cc2)c1C [Compound 16c, 4-(2-(4-Bromophenyl)-quinoline-4-carboxamido)-N-(3,4-dimethyl-isoxazol-5-yl) benzenesulfonamide] | 4.11 | 10.0 | –
3 | O=C(Nc1ccc(S(=O)(=O)Nc2cnc3ccccc3n2)cc1)c1ccccc1 [Compound 17b, 4-Benzamido-N-quinoxalin-2-yl benzenesulfonamide] | 23.4 | 5.6 | –
4 | Cc1noc(NS(=O)(=O)c2ccc(NC(=O)c3cc(-c4cccc(Br)c4)nc4ccc(F)cc34)cc2)c1C [Compound 16i, 4-(2-(3-Bromophenyl)-6-fluoro-quinoline-4-carboxamido)-N-(3,4-dimethyl-isoxazol-5-yl) benzenesulfonamide] | 2.25 | 32.0 | –
5 | Cc1noc(NS(=O)(=O)c2ccc(NC(=O)c3cc(-c4cccc(F)c4)nc4ccccc34)cc2)c1C [Compound 16a, 4-(2-(3-Fluorophenyl)-quinoline-4-carboxamido)-N-(3,4-dimethyl-isoxazol-5-yl) benzenesulfonamide] | 10.2 | 18.0 | –
6 | Cc1ccnc(NS(=O)(=O)c2ccc(NC(=O)c3ccnc(-c4ccccc4C)c3)cc2)n1 [Compound 16q, 4-(2-(2-Methylphenyl)-pyridine-4-carboxamido)-N-(4-methyl-pyrimidin-2-yl) benzenesulfonamide] | 340 | – | –
7 | O=C(Cc1ccc(Cl)cc1Cl)Nc1ccc(S(=O)(=O)Nc2cnc3ccccc3n2)cc1 [Compound 17a, 4-(2,4-Dichlorophenylacetamido)-N-quinoxalin-2-yl benzenesulfonamide] | 37.7 | – | –
8 | Cc1noc(NS(=O)(=O)c2ccc(NC(=O)c3cc(-c4ccccc4Br)nc4ccccc34)cc2)c1C [Compound 16d, 4-(2-(2-Bromophenyl)-quinoline-4-carboxamido)-N-(3,4-dimethyl-isoxazol-5-yl) benzenesulfonamide] | 223 | 15.0 | –
9 | Cc1noc(NS(=O)(=O)c2ccc(NC(=O)c3ccnc(-c4ccc(Br)cc4)c3)cc2)c1C [Compound 16l, 4-(2-(4-Bromophenyl)-pyridine-4-carboxamido)-N-(3,4-dimethyl-isoxazol-5-yl) benzenesulfonamide] | 89.5 | – | –
10 | Cc1noc(NS(=O)(=O)c2ccc(NC(=O)c3ccnc(-c4ccc(Cl)cc4)c3)cc2)c1C [Compound 16n, 4-(2-(4-Chlorophenyl)-pyridine-4-carboxamido)-N-(3,4-dimethyl-isoxazol-5-yl) benzenesulfonamide] | 1.86 | – | –
11 | Cc1noc(NS(=O)(=O)c2ccc(NC(=O)c3ccnc(-c4ccccc4)c3)cc2)c1C [Compound 16m, 4-(2-Phenyl-pyridine-4-carboxamido)-N-(3,4-dimethyl-isoxazol-5-yl) benzenesulfonamide] | 14.5 | – | –
12 | Cc1noc(NS(=O)(=O)c2ccc(NC(=O)c3cc(C4CCCCC4)nc4ccccc34)cc2)c1C [Compound 16g, 4-(2-Cyclohexanyl-quinoline-4-carboxamido)-N-(3,4-dimethyl-isoxazol-5-yl) benzenesulfonamide] | 1.79 | – | –
13 | O=C(CCc1ccccc1)Nc1ccc(S(=O)(=O)Nc2cnc3ccccc3n2)cc1 [Compound 17c, 4-(3-Phenyl-propionamido)-N-quinoxalin-2-yl benzenesulfonamide] | 1.06 | – | –
14 | Cc1noc(NS(=O)(=O)c2ccc(NC(=O)c3cc(-c4ccncc4)nc4ccccc34)cc2)c1C [Compound 16e, 4-(2-Pyridin-4-yl-quinoline-4-carboxamido)-N-(3,4-dimethyl-isoxazol-5-yl) benzenesulfonamide] | 10.6 | 40.0 | –
15 | Cc1noc(NS(=O)(=O)c2ccc(NC(=O)c3cc(-c4cccs4)nc4ccccc34)cc2)c1C [Compound 16f, 4-(2-Thiophen-2-yl-quinoline-4-carboxamido)-N-(3,4-dimethyl-isoxazol-5-yl) benzenesulfonamide] | 91.3 | 30.0 | –
16 | O=C(Nc1ccc(S(=O)(=O)Nc2cnc3ccccc3n2)cc1)c1cc(-c2cccc(Br)c2)nc2ccccc12 [Compound 16j, 4-(2-(3-Bromophenyl)-quinoline-4-carboxamido)-N-quinoxalin-2-yl benzenesulfonamide] | 3.13 | 36.0 | –
17 | Cc1noc(NS(=O)(=O)c2ccc(NC(=O)Cc3ccc(Cl)cc3)cc2)c1C [Compound 17d, 4-(4-Chlorophenylacetamido)-N-(3,4-dimethyl-isoxazol-5-yl) benzenesulfonamide] | 0.35 | – | –
18 | Cc1ccccc1-c1cc(C(=O)Nc2ccc(S(=O)(=O)Nc3onc(C)c3C)cc2)ccn1 [Compound 16p, 4-(2-(2-Methylphenyl)-pyridine-4-carboxamido)-N-(3,4-dimethyl-isoxazol-5-yl) benzenesulfonamide] | 7.61 | – | –
19 | Cc1noc(NS(=O)(=O)c2ccc(NC(=O)c3ccnc(-c4ccc(F)cc4)c3)cc2)c1C [Compound 16o, 4-(2-(4-Fluorophenyl)-pyridine-4-carboxamido)-N-(3,4-dimethyl-isoxazol-5-yl) benzenesulfonamide] | 42.4 | 26.0 | –
